In brackets after ≈: the same amount, converted by molar mass. Like-named read-outs stand apart in the source and are kept apart here.
What was measured:
[1] = pH of precipitation by addition of NaOH to a HP-β-cyclodextrin solution (Example 9); type: physicochemical; settings: hydrogen sulfate salt in Cavitron W7H5 solution; 0.5M NaOH added; visual; duplicate
Experimental: The objective of this study is to define the pH of precipitation of Compound A (hydrogen sulfate salt) from HP-β-cyclodextrin solution to better understand the risk of precipitation and select the pH of the drug product.
Weigh 10 g of Cavitron™ W7H5 in a 50 mL flask. Add 26 g of water and then solubilize the Cavitron™ W7H5 under magnetic agitation. Carefully add 1.14 g of Compound A under magnetic agitation and then add 6.5 mL of water. Solubilize Compound A using magnetic agitation at 60° C. Once totally solubilized, cool down the solution at room temperature then rinse the upper edges of the flask with 0.5 mL of water. The total amount of water added is […].
Slowly add 0.5M NaOH solution under continuous agitation (add 100 μL at each addition step) up to a precipitation is visually observed. The experiment was performed in duplicate. The precipitated solid is separated and dried to be analyzed by RMN, XRPD, XRF, and HPLC.

[2] = Physical and chemical stability over time of solutions diluted in G5; type: physicochemical; settings: 12, 20 and 1000 mg/250 mL of G5
Experimental: Moreover, studies of physical stability over time (24 h, 48 h and 72 h) are carried out on the solutions obtained hereinbefore. In particular, these studies include the particle count of the tested solutions in accordance with the method described in the text of the European Pharmacopoeia 2.9.19. Tests 1.B (i.e. counting of the sub-visible particles by light obscuration).
Studies of chemical stability over time (24 h, 48 h and 72 h) are also put in place in order to ensure the stability of the product under laboratory light (1500 lux) and various heat conditions (ambient temperature, 5° C.). These studies include especially measurements of the amount of active ingredient and degradation products. Pharmaceutical compositions of Compound A solubilised by means of a Cavitron™ W7H5 solution diluted in G5 solution were tested for the following concentrations: 12 mg/250 mL, 20 mg/250 mL and 1000 mg/250 mL of G5 solution.

[3] = tested on: RS4;11; assay: Efficacy in RS4;11 xenograft model in mice; type: in vivo; settings: day 21, 20% HP-β-cyclodextrin solution
Experimental: The in vivo therapeutic effect of Compound A formulated in a solution comprising 20% of a HP-β-cyclodextrin w/v, was determined in the RS4;11 model after intravenous administration.
RS4;11 cell line, obtained from ATCC, were subcutaneously injected into female SCID mice, provided by Charles River. When tumors reached the appropriate tumor volume, mice were randomized using Easy stat software. Compound A (15 mg/kg or 40 mg/kg expressed as free base) was injected i.v. once a week over two weeks.
In a 100 mL flask, introduce 20 g of Cavitron™ W7HP5 and add around 75 mL of a solution water/0.9% NaCl (70/30, v/v). Stir for 15 minutes at room temperature. Then, make up the solution to a volume of 100 mL by adding the previous solution water/0.9% NaCl, while maintaining magnetic stirring. Weigh the necessary amount of ‘Compound A, H2SO4’ and dissolve it with the previous 20% w/v Cavitron™ W7H5 solution. Heat the whole at 60° C. under vigorous magnetic stirring until solubilisation of the components of the mixture is complete. Measure the pH of the solution obtained. […]
Mice were monitored for tumor development and body weight three times a week and tumor size was measured using electronic calipers. […] The last day with all control animals still present in the study, tumor growth inhibition was calculated using the formula: […]
wherein ‘DTV (Delta Tumor Volume) at Dx’ is calculated as follows: […]

[4] = Solubility test of Compound A, H2SO4 in a HP-β-cyclodextrin as a function of the pH; type: physicochemical; settings: for solubility at 24 h: aqueous HP-β-cyclodextrin (Cavitron W7HP5) solution, aqueous with cosolvent or surfactant or cyclodextrin, thermodynamic from solid, read-out: Solubility after 24 h
Experimental: The solubility of ‘Compound A, H2SO4’ was studied in the presence of a HP-β-cyclodextrin as a function of the pH.
10 g of the cyclodextrin studied (Cavitron™ W7HP5) are placed in a 50 mL graduated flask. 40 mL of water are then added. The whole is placed under magnetic stirring. The volume is then made up with water to 50 mL.
Approximately 856.7 mg of ‘Compound A, H2SO4’ are weighed. 30 mL of the medium containing the carrier to be tested, that is to say Cavitron™ W7HP5, are then added. The whole is placed under magnetic stirring for 24 hours. The suspension so obtained is passed through a 0.2 μm filter (PALL—PES membrane—diameter 25 mm) before being analysed by HPLC.
In other tests, the pH of the solution is then modified by means of 0.1 N NaOH solution until values of 4 and 8.8 are reached, before the analysis by HPLC chromatography is carried out.

pH at which drug precipitation was observed [1] | pH from which a precipitate is visually observed ([4]; Cavitron W7HP5 200 mg/mL, pH raised with 0.1 N NaOH) | solubility at 24 h ([4]; Cavitron W7HP5 200 mg/mL + 0.1N NaOH, pH 4.01) [mg/mL] | solubility at 24 h ([4]; Cavitron W7HP5 200 mg/mL + 0.1N NaOH, pH 8.8) [mg/mL] | solubility at 24 h ([4]; Cavitron W7HP5 200 mg/mL, pH 1.86 (without adjustment)) [mg/mL] | SMILES | chemical degradation product ([2]; laboratory light (1500 lux), ambient temperature and 5° C., during 72 h) | rate of sub-visible particles (light obscuration method) ([2]; up to 72 h) | tumor growth inhibition ([3]; 15 mg/kg i.v. once a week for 2 weeks) [%] | tumor growth inhibition ([3]; 40 mg/kg i.v. once a week for 2 weeks) [%]
4.27 | – | – | – | – | Cc1c(N(C(=O)c2cc(-c3cc(Cl)ccc3C(=O)N3Cc4ccccc4C[C@H]3CN3CCOCC3)n(C)c2C)c2ccc(O)cc2)cc(C#N)n1C [Compound A, 5-(5-chloro-2-{[(3S)-3-(morpholin-4-ylmethyl)-3,4-dihydroisoquinolin-2(1H)-yl]carbonyl}phenyl)-N-(5-cyano-1,2-dimethyl-1H-pyrrol-3-yl)-N-(4-hydroxyphenyl)-1,2-dimethyl-1H-pyrrole-3-carboxamide] | No significant chemical degradation product was observed | in accordance with the requirement of the European Pharmacopoeia 2.9.19 | 57.83 | 75.52
– | 3.2 | 17.1 | 0.99 | 21.6 (≈ 30.1 mM) | Cc1c(N(C(=O)c2cc(-c3cc(Cl)ccc3C(=O)N3Cc4ccccc4C[C@H]3CN3CCOCC3)n(C)c2C)c2ccc(O)cc2)cc(C#N)n1C [Compound A, H2SO4, 5-(5-chloro-2-{[(3S)-3-(morpholin-4-ylmethyl)-3,4-dihydroisoquinolin-2(1H)-yl]carbonyl}phenyl)-N-(5-cyano-1,2-dimethyl-1H-pyrrol-3-yl)-N-(4-hydroxyphenyl)-1,2-dimethyl-1H-pyrrole-3-carboxamide] | – | – | – | –

— patent publication US20210353633A1, “CYCLODEXTRIN-BASED FORMULATION OF A BCL-2 INHIBITOR” (LES LABORATOIRES SERVIER, priority 2018, published 2021)
